Counter-ions that a name gives are not always drawn.
Experiments:
Varroa mites [1] = test: Evaluation of acaricidal effect: emerging bees loaded with Varroa mites in glass petri dish, compound on Parafilm; type: in vivo, Varroa destructor; settings: for mites falling off bees: up to end of experiment; for acaricidal effect: highest amount tested (30 μl), end of 24 h
Experimental: The effect of the compounds was checked in free moving-mites freshly collected from the bottom board using fine paint brush. All collected Varroa were kept on emerging bees at room temperature until the experiment.
Compounds (code-labeled, Table 1) were prepared in hexane:ethyl acetate (1:1) in 10 mM concentration according to instructions. Dilutions only of compound “A” was prepared. […] This setup enabled the testing of all the compounds and to save the mites.
The assay was conducted in glass petri dish (90 mm diameter and 17 mm deep glass) containing moistened filter paper. Five emerging bees loaded with two Varroa mites were put into each plate. The bees were provided with candy (60% of pollen and 40% sugar). 10 μl or 30 μl volume of each compound or control mix was placed on Parafilm paper (5×5 cm) on the plates cover.

Varroa mites [2] = test: Example 6 behavioral dose response bio-assays of Varroa mites; type: in vivo; settings: for mite paralysis/mortality: 1 mg
Excerpt: Foragers were collected at the entrance of one or more honey bee hives by aspiration into a jar, when bees were flying back to the colony.
Initially, nurses were collected from an open brood frame of a honey bee hive. Bees apparently attending the brood were targeted for collection. As time passed and temperatures started to drop no open brood was observed, therefore subsequent collections targeted bees around sealed brood. At the end of the sampling period no sealed brood was present, so bees taken from the middle frame of a brood chamber were considered nurses.
Both foragers and nurses were immediately transferred to individual plastic cages (118×98×81 mm: H×W×D), fed with syrup (2:1) and kept overnight in an incubator at 30° C. and 70% RH. Next day, cages were inspected for any dead bees to be removed before freeze killing the bees on dry ice.
For Varroa mite collection, adult bees were taken from the brood chamber's central frames of a mite-infested hive using a glass jar. Bees were fed with syrup (2:1), and kept in an incubator at 30° C. and 70% RH until needed. First collections were made from frames with open and sealed brood, later only from sealed brood frames.
Mite-infested bees in the glass jar were dusted with icy sugar and shaken over a large plastic weighing boat. Dislodged Varroa were immediately transferred with a fine paint brush to a wet filter paper in a plastic petri dish to avoid desiccation. Individual mites were placed then onto the middle of a glass petri dish bottom (10 cm diameter) with a fresh freeze-killed forager or nurse bee on opposite sides of the plate. Synthesized compounds were applied onto a 1 cm^2 Parafilm square attached to the center of the petri dish cover's inner face, Hexane was used as control.
The bio-assays with a forager and a nurse bee, Varroa mite, and synthesized compounds were set in glass petri dishes placed into an incubator at 30° C. and 70% relative humidity. […] Mite paralysis and death were recorded after 3 h and 5 h.

Varroa destructor mites [3] = test: Example 3 paralysis assays in petri dishes (dose response, screen, blends); type: in vivo
Experimental: Paralysis assays. These assays were done in 10 cm glass Petri dishes. A 3×3 cm piece of Parafilm was stuck to the lid of the dish, in the middle. The Parafilm received […], either pure (controls) or with the compound (treatments). The bottom of the dish received one freshly thawed nurse and one freshly thawed forager, placed ˜3 cm from the center of the dish. One mite was placed between the nurse and the forager, the lid was closed and groups of dishes were placed in an incubator at 30° C. Humidity levels were kept at around 35-40%.
Observation times were 3 h and 5 h. Mites were scored for whether the mite could move normally, was paralyzed (had difficulty moving) or dead (not moving).
Each assay was done in 5 technical replicates, in two biological replicates. Thus, each biological replicate was scored out of 5.
(§1) Experiments were performed in the dishes: i) dose response assays with a single compound at different doses of compound on the Parafilm (1 ng, 10 ng, 100 ng, 1 μg, 10 μg, 100 μg, 1 mg and 10 mg), ii) a screen with six compounds, all at a 1 mg dose, iii) an assay with blends of compounds 3c{3,6} and 3c{6,6}, and iv) one assay without bees (only to check for mite paralysis and death), with compounds 3c{3,6} and 3c{6,6}(pure or 1:1 blend), at 0.5 and 1 mg doses.

Varroa destructor mites [4] = test: Example 3 mite paralysis/death in the absence of bees; type: in vivo; settings: no bees, 4.5 h
Experimental: as §1
Compounds 3c{3,6}, 3c{6,6} were tested on mites in the absence of bees, alone and as a 1:1 blend. Mite paralysis and death were checked every 30 min, up to 4.5 h after initial exposure. Four doses were tested: 0.2, 0.5, 1 and 10 mg.

Varroa [5] = test: Example 5 Varroa death and paralysis assay, single compounds and blend; parameters: species or system Varroa destructor; settings: in vivo
Experimental: Assays were done in 9 cm glass Petri dishes. A 2.5×2.5 cm piece of Parafilm was stuck to the lid of the dish, in the middle. 120 μL water were put on filter paper in the middle of the plate. The Parafilm received 10 μL of hexane, either pure (controls) or with the compound (treatments). The bottom of the dish received one freshly thawed nurse and one freshly thawed forager, placed at opposite sides. One mite was placed between the nurse and the forager, the lid was closed and groups of dishes were placed in an incubator at 30° C. Observation times were at 3 h, 5 h and 20 h. Mites were scored for whether the mite could move normally, was paralyzed (had difficulty moving) or dead (not moving). Four types of experiment were performed in the dishes: i) dose response assays with a single compound at different doses of compound on the Parafilm (1 ng, 10 ng, 100 ng, 1 μg, 10 μg, 100 μg, 1 mg) an assay with blends of compounds 3c{3,6} and 3c{6,6} (pure or 1:1 blend) at 0.5 mg and […].

honey bee antennae = settings: earlier evaluation; cited from earlier work
Varroa [6] = settings: earlier evaluation; cited from earlier work

Q: Which “mites falling off bees” value (Varroa mites [1]) does the source give for `C=CCOc1ccccc1OCCC` [3a{3,6}, 1-allyloxy-2-propoxybenzene] here?
A: occasionally fell off bees but reattached quickly

Q: For `CCOc1cccc(OCC)c1` [3b{2,2}, 1,3-diethoxybenzene], which mite paralysis/mortality (Varroa mites [2]) is on record?
A: 50%

Q: Which “paralysis and mite death in screen” value (Varroa destructor mites [3]; 1 mg dose, 3 h) does the source give for `C=CCOc1ccc(OCC)cc1` [3c{2,6}, 1-(allyloxy)-4-ethoxybenzene] here?
A: little paralysis

Q: With `CCCOc1ccc(OCCC)cc1` [3c{3,3}, 1,4-dipropoxybenzene] as the compound, how does the acaricidal effect (Varroa mites [1]) read?
A: clear acaricidal effect

Q: What about the “paralysis and mite death in screen” value (Varroa destructor mites [3]; 1 mg dose, 3 h) of the same compound?
A: most reliable mite paralysis

Q: With `CCCCOc1ccc(OCCC)cc1` [3c{4,3}, 1-butoxy-4-propoxybenzene] as the compound, how does the acaricidal effect (Varroa mites [1]) read?
A: somewhat effective

Q: What about the “paralysis and mite death in screen” value (Varroa destructor mites [3]; 1 mg dose, 3 h) of the same compound?
A: most death

Q: With `C=CCOc1ccc(OCCCC)cc1` [3c{4,6}, 1-(allyloxy)-4-butoxybenzene] as the compound, how does the acaricidal effect (Varroa mites [1]) read?
A: clear acaricidal effect

Q: What about the “activity relative to compound 3c{3,6} in screen” value (Varroa destructor mites [3]; 1 mg dose) of the same compound?
A: slightly less active

Q: What does the source list for `C=CCOc1ccc(OCC=C)cc1` [3c{6,6}, 1,4-bis(allyloxy)benzene]?
A: acaricidal effect (Varroa mites [1]): clear acaricidal effect; mites falling off bees (Varroa mites [1]): occasionally fell off bees but reattached quickly; fold less active than 3c{3,6} with regard to paralysis and death of mites (Varroa destructor mites [3]; from EC50): ca. 4 ×; EC50 for paralysis and eventual death of mites (Varroa destructor mites [3]; neat compound on the source, vapors only, 3 h): 182 µg; mite paralysis+death (Varroa destructor mites [4]; 0.2 mg): no activity; mite paralysis+death (Varroa destructor mites [4]; 0.5 mg): no activity; mite paralysis or death (Varroa destructor mites [4]; 10 mg): 100%; acaricidal activity alone (Varroa [5]): acaricidal; mite paralysis/mortality (Varroa mites [2]): 50%; doses at which mites were paralyzed or killed (Varroa mites [2]; FIG. 9 / FIG. 10): ≥ 10 µg

Q: With `C=CCOc1ccc(OCCCCC)cc1` [3c{n5,6}, 1-(allyloxy)-4-(pentyloxy)benzene] as the compound, how does the “mites falling off bees” value (Varroa mites [1]) read?
A: occasionally fell off bees but reattached quickly

Q: For `CCN(CC)C(=O)c1cccc(C)c1` [DEET, N,N-diethyl-meta-toluamide], which “chemosensing and behavior of honey bees” value (honey bee antennae) is on record?
A: not found to affect

Q: What about the “ability of mites to reach a bee” value (Varroa [6]) of the same compound?
A: reduced

Q: And the “host preference of Varroa” value (Varroa [6])?
A: without affecting

Q: With `Cc1ccc(C(C)C)c(OC=O)c1` [thymyl formate] as the compound, how does the acaricidal effect (Varroa mites [1]) read?
A: somewhat effective

Source: patent US11540515B2, “Use of dialkoxybenzenes for control of honey bee mite varroa destructor” (Simon Fraser University, priority 2018, dated 2023)
